Measurements published in patent publication US20230053688A1, “METHODS TO ALTER LATENCY IN EBV+ MALIGNANCIES” (Cornell University, priority 2020, published 2023).
Read-outs that look alike come from different tables or passages of the source.

Test system: LMP1 expression in Kem I cells
Experiment: microbe, parasite or virus in culture
Type: cell-based, EBV
Details: for fold induction at 2.5 µM: human gammaherpesvirus 4, 48 h
[1] = Kem I cells, 2.5 uM, 48 hours, average of replicates 1 and 2
[2] = Kem I cells, 2.5 uM, 48 hours, fold change in LMP1 transcript vs vehicle
[3] = read-out: Average LMP1 Fold Increase, Kem I cells, 2.5 uM, 48 hours, average of replicates 1 and 2
[4] = read-out: Replicate 1-LMP1 Fold Increase, Kem I cells, 2.5 uM, 48 hours, fold change in LMP1 transcript vs vehicle
[5] = read-out: Replicate 2-LMP1 Fold Increase, Kem I cells, 2.5 uM, 48 hours, fold change in LMP1 transcript vs vehicle
[6] = Kem I cells, dose 2.5 uM, 48 hours, LMP1 transcript by in-well qRT-PCR, average of the two replicates
[7] = Kem I cells, dose 2.5 uM, 48 hours, LMP1 transcript by in-well qRT-PCR, screen replicate 1
[8] = Kem I cells, dose 2.5 uM, 48 hours, LMP1 transcript by in-well qRT-PCR, screen replicate 2
[9] = read-out: Average LMP1 Fold Increase, Kem I cells, dose 2.5 uM, 48 hours, LMP1 transcript by in-well qRT-PCR, average of the two replicates
[10] = read-out: Replicate 1-LMP1 Fold Increase, Kem I cells, dose 2.5 uM, 48 hours, LMP1 transcript by in-well qRT-PCR, screen replicate 1
[11] = read-out: Replicate 2-LMP1 Fold Increase, Kem I cells, dose 2.5 uM, 48 hours, LMP1 transcript by in-well qRT-PCR, screen replicate 2

Compound: O=C(NC(NC(=S)Nc1ccc(F)c([N+](=O)[O-])c1)C(Cl)(Cl)Cl)C(c1ccccc1)c1ccccc1 (stereo not drawn) [CGK 733]
- Average LMP1 Fold Increase [1]: 0.71
- Replicate 1-LMP1 Fold Increase [2]: 0.58
- Replicate 2-LMP1 Fold Increase [2]: 0.84

Compound: COc1cc(CCc2cc(NC(=O)c3ccc(N4CC(C)NC(C)C4)cc3)n[nH]2)cc(OC)c1 (stereo not drawn) [AZD4547]
- Average LMP1 Fold Increase [1]: 0.13
- Replicate 1-LMP1 Fold Increase [2]: 0.11
- Replicate 2-LMP1 Fold Increase [2]: 0.15

Compound: O=C(Oc1cc(S(=O)(=O)c2ccccc2)ccc1[N+](=O)[O-])c1ccc(Cl)cc1 [BTB06584]
- Average LMP1 Fold Increase [1]: 1.22
- Replicate 1-LMP1 Fold Increase [2]: 1.23
- Replicate 2-LMP1 Fold Increase [2]: 1.20

Compound: Cc1[nH]c(/C=C2\C(=O)Nc3ccc(S(=O)(=O)Cc4c(Cl)cccc4Cl)cc32)c(C)c1C(=O)N1CCC[C@@H]1CN1CCCC1 [PHA-665752]
- fold induction at 2.5 µM [3]: 0.69
- fold induction at 2.5 µM [4]: 0.55
- fold induction at 2.5 µM [5]: 0.84

Compound: COCC[n+]1c2c(n(Cc3cnccn3)c1C)C(=O)c1ccccc1C2=O.[Br-] [YM155 (Sepantronium Bromide)]
- Average LMP1 Fold Increase [6]: 0.00 fold
- Replicate 1-LMP1 Fold Increase [7]: 0.00 fold
- Replicate 2-LMP1 Fold Increase [8]: 0.00 fold

Compound: Cn1cc(C2=C(c3cn(C4CCN(Cc5ccccn5)CC4)c4ccccc34)C(=O)NC2=O)c2ccccc21 [Enzastaurin (LY317615)]
- Average LMP1 Fold Increase [1]: 25.14
- Replicate 1-LMP1 Fold Increase [2]: 0.48
- Replicate 2-LMP1 Fold Increase [2]: 49.80

Compound: CCOC(=O)c1cncn1[C@H](C)c1ccccc1 [Etomidate]
- fold induction at 2.5 µM [3]: 0.5
- fold induction at 2.5 µM [4]: 0.56
- fold induction at 2.5 µM [5]: 0.44

Compound: VU 0364439
- Average LMP1 Fold Increase [6]: 0.90 fold
- Replicate 1-LMP1 Fold Increase [7]: 1.34 fold
- Replicate 2-LMP1 Fold Increase [8]: 0.45 fold

Compound: C=C[C@@]1(C)CC(=O)[C@]2(O)[C@@]3(C)[C@@H](O)CCC(C)(C)[C@@H]3[C@H](O)[C@H](OC(C)=O)[C@@]2(C)O1 [Forskolin]
- fold induction at 2.5 µM [3]: 1.25
- fold induction at 2.5 µM [4]: 1.39
- fold induction at 2.5 µM [5]: 1.11

Compound: CNC(=O)c1cc(Oc2ccc(NC(=O)Nc3cc(C(C)(C)C)nn3-c3ccc4ncccc4c3)c(F)c2)ccn1 [DCC-2036 (Rebastinib)]
- Average LMP1 Fold Increase [1]: 0.38
- Replicate 1-LMP1 Fold Increase [2]: 0.50
- Replicate 2-LMP1 Fold Increase [2]: 0.25

Compound: CCC(=O)Nc1cccc(Oc2nc(Nc3ccc(N4CCN(C)CC4)cc3OC)ncc2Cl)c1 [WZ4003]
- Average LMP1 Fold Increase [6]: 0.72 fold
- Replicate 1-LMP1 Fold Increase [7]: 0.79 fold
- Replicate 2-LMP1 Fold Increase [8]: 0.64 fold

Compound: Cn1c(=O)cc(N2CCC[C@@H](N)C2)n(Cc2cc(F)ccc2C#N)c1=O [Trelagliptin]
- fold induction at 2.5 µM [9]: 0.63
- fold induction at 2.5 µM [10]: 0.96
- fold induction at 2.5 µM [11]: 0.31

Compound: SNS-314 Mesylate
- Average LMP1 Fold Increase [1]: 0.51
- Replicate 1-LMP1 Fold Increase [2]: 0.71
- Replicate 2-LMP1 Fold Increase [2]: 0.32

Compound: Cc1noc(-c2ccc(CSCCC(=O)O)cc2)c1NC(=O)OC(C)c1ccccc1Cl (stereo not drawn) [Ki16425]
- Average LMP1 Fold Increase [1]: 0.62
- Replicate 1-LMP1 Fold Increase [2]: 0.80
- Replicate 2-LMP1 Fold Increase [2]: 0.45

Compound: O=C(Nc1ccccc1)c1cc([N+](=O)[O-])ccc1Cl [GW9662]
- Average LMP1 Fold Increase [1]: 0.58
- Replicate 1-LMP1 Fold Increase [2]: 0.26
- Replicate 2-LMP1 Fold Increase [2]: 0.89

Compound: O=C1NC(=O)/C(=C/c2ccc(-c3ccc(F)cc3O)o2)S1 [AS-252424]
- Average LMP1 Fold Increase [1]: 0.53
- Replicate 1-LMP1 Fold Increase [2]: 0.57
- Replicate 2-LMP1 Fold Increase [2]: 0.49

Compound: Cc1cnc(NC(=O)Nc2cc(Br)c(C)cc2OC[C@@H]2CNCCO2)cn1 [LY2603618]
- Average LMP1 Fold Increase [1]: 1.21
- Replicate 1-LMP1 Fold Increase [2]: 0.94
- Replicate 2-LMP1 Fold Increase [2]: 1.47

Compound: SN-38
- Average LMP1 Fold Increase [1]: 1.10
- Replicate 1-LMP1 Fold Increase [2]: 0.95
- Replicate 2-LMP1 Fold Increase [2]: 1.26

Compound: CC(C)(C)c1nc(-c2cccc(NS(=O)(=O)c3c(F)cccc3F)c2F)c(-c2ccnc(N)n2)s1 [Dabrafenib (GSK2118436)]
- Average LMP1 Fold Increase [1]: 0.92
- Replicate 1-LMP1 Fold Increase [2]: 0.61
- Replicate 2-LMP1 Fold Increase [2]: 1.22

Compound: COc1cc(Nc2ncc(F)c(Nc3ccc4c(n3)N(COP(=O)(O)O)C(=O)C(C)(C)O4)n2)cc(OC)c1OC [Fostamatinib (R788)]
- Average LMP1 Fold Increase [1]: 0.67
- Replicate 1-LMP1 Fold Increase [2]: 0.24
- Replicate 2-LMP1 Fold Increase [2]: 1.11

Compound: C[C@@H](c1ncncc1F)[C@](O)(Cn1cncn1)c1ccc(F)cc1F [Voriconazole]
- fold induction at 2.5 µM [9]: 1.48
- fold induction at 2.5 µM [10]: 1.02
- fold induction at 2.5 µM [11]: 1.94

Compound: CCn1c(-c2nonc2N)nc2c(C#CC(C)(C)O)ncc(OC[C@H]3CCCNC3)c21 [GSK690693]
- Average LMP1 Fold Increase [1]: 0.63
- Replicate 1-LMP1 Fold Increase [2]: 0.85
- Replicate 2-LMP1 Fold Increase [2]: 0.41

Compound: Cc1cccc(-c2[nH]ncc2-c2ccc3ncccc3n2)n1 [RepSox]
- Average LMP1 Fold Increase: 0.64
- Replicate 1-LMP1 Fold Increase: 0.96
- Replicate 2-LMP1 Fold Increase: 0.33

Compound: Cc1ccc2c(=O)c3cccc(CC(=O)O)c3oc2c1C [DMXAA (Vadimezan)]
- Average LMP1 Fold Increase [1]: 0.87
- Replicate 1-LMP1 Fold Increase [2]: 0.44
- Replicate 2-LMP1 Fold Increase [2]: 1.29

Compound: CCOC(=O)C1=C(C)NC(C)=C(C(=O)OC)C1c1cccc(Cl)c1Cl (stereo not drawn) [Felodipine]
- fold induction at 2.5 µM [3]: 0.77
- fold induction at 2.5 µM [4]: 0.84
- fold induction at 2.5 µM [5]: 0.69

Compound: COc1ccc(C[C@@H](C)NC[C@H](O)c2ccc(O)c(NC=O)c2)cc1.COc1ccc(C[C@@H](C)NC[C@H](O)c2ccc(O)c(NC=O)c2)cc1.O=C(O)/C=C/C(=O)O [Formoterol Hemifumarate]
- Average LMP1 Fold Increase [1]: 1.83
- Replicate 1-LMP1 Fold Increase [2]: 1.71
- Replicate 2-LMP1 Fold Increase [2]: 1.96

Compound: O=C(O)c1ccc(N2C(=O)/C(=C\c3ccc(-c4ccc([N+](=O)[O-])cc4)o3)C=C2c2ccccc2)cc1 [4E1RCat]
- Average LMP1 Fold Increase [1]: 0.71
- Replicate 1-LMP1 Fold Increase [2]: 0.30
- Replicate 2-LMP1 Fold Increase [2]: 1.12

Compound: O=C(O)Cn1nnc(-c2cc(N3CCC(Oc4cc(F)ccc4Br)CC3)no2)n1 [MK-8245]
- fold induction at 2.5 µM [3]: 1.17
- fold induction at 2.5 µM [4]: 1.51
- fold induction at 2.5 µM [5]: 0.84

Compound: COc1cc2/c(=N/c3ccc(Br)cc3F)nc[nH]c2cc1OCC1CCN(C)CC1 [Vandetanib (ZD6474)]
- Average LMP1 Fold Increase [6]: 1.14 fold
- Replicate 1-LMP1 Fold Increase [7]: 0.81 fold
- Replicate 2-LMP1 Fold Increase [8]: 1.47 fold

Compound: Pifithrin-μ
- Average LMP1 Fold Increase [1]: 0.78
- Replicate 1-LMP1 Fold Increase [2]: 0.40
- Replicate 2-LMP1 Fold Increase [2]: 1.17

Compound: C[C@H](CS)C(=O)N1CCC[C@H]1C(=O)O [Captopril]
- fold induction at 2.5 µM [3]: 0.62
- fold induction at 2.5 µM [4]: 0.71
- fold induction at 2.5 µM [5]: 0.52

Compound: NC1(Cc2ccc(Cl)cc2)CCN(c2ncnc3[nH]ccc23)CC1 [CCT128930]
- Average LMP1 Fold Increase [1]: 0.59
- Replicate 1-LMP1 Fold Increase [2]: 0.40
- Replicate 2-LMP1 Fold Increase [2]: 0.78

Compound: CCC(CC)(NC(=O)C(C)C)C(=O)N[C@@H](CCCN=C(N)N)C(=O)NC1(C(=O)NC(c2ccc(F)cc2)c2ccc(F)cc2)CCCC1 [MM-102]
- Average LMP1 Fold Increase [1]: 0.27
- Replicate 1-LMP1 Fold Increase [2]: 0.27
- Replicate 2-LMP1 Fold Increase [2]: 0.27

Compound: Ifenprodil Tartrate
- Average LMP1 Fold Increase [1]: 0.96
- Replicate 1-LMP1 Fold Increase [2]: 0.58
- Replicate 2-LMP1 Fold Increase [2]: 1.35

Compound: CNCc1ccc(-c2cc(-c3nc(-c4ccc(S(=O)(=O)C(C)C)cc4)cnc3N)on2)cc1 [VE-822]
- fold induction at 2.5 µM [9]: 4.03
- fold induction at 2.5 µM [10]: 3.28
- fold induction at 2.5 µM [11]: 4.78
